Assays:
HHV-6B U51 [1] = molecular target: T1, HHV-6B U51 (Human herpesvirus 6B, UniProt P52542); type: binding
HEK293 cells = type: cell-based, human
U51 = molecular target: T2, U51 (Human herpesvirus 6A, UniProt P52382); settings: Fitzsimons C P, et al. 2005; cited from earlier work
T2 sequence (P52382 1-301): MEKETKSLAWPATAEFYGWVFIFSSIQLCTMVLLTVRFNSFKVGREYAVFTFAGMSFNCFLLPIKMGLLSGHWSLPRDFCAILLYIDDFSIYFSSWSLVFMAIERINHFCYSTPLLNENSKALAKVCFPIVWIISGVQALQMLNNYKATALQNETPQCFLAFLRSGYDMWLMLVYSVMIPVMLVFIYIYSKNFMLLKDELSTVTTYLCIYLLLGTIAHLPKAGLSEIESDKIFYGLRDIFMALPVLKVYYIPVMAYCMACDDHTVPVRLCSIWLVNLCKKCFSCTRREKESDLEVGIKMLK

HHV-6 U51 = molecular target: T3, HHV-6 U51 (Human herpesvirus 6A, UniProt P52382); settings: Beisser, et al. 1998; cited from earlier work
T3 sequence (P52382 1-301): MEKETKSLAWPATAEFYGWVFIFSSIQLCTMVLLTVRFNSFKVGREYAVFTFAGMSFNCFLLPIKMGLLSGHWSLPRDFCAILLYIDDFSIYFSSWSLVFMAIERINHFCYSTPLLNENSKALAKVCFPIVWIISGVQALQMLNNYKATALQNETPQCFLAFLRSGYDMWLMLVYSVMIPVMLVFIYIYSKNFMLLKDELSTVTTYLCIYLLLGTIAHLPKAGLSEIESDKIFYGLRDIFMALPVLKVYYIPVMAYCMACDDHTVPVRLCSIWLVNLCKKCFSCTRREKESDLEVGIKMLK

[2] = system: wild-type 293 cells (HEK 293 cell membranes); test: [35S]GTPγS binding to native (wild-type) HEK293 cell membranes; type: biochemical, human; settings: binding without compound = 100%, three experiments
HHV-6B U51 [3] = molecular target: T4, HHV-6B U51 (Human herpesvirus 6B, UniProt P52542); type: biochemical; settings: HHV-6B U51 HEK293 membranes; for % Control [35S]GTPγS binding ± SEM, U51 (+Tet): induced with 1 μg/ml tetracycline 24 h; for % Control [35S]GTPγS binding ± SEM, U51 (Unind): no tetracycline (uninduced)
T4 sequence (P52542 whole entry, looked up): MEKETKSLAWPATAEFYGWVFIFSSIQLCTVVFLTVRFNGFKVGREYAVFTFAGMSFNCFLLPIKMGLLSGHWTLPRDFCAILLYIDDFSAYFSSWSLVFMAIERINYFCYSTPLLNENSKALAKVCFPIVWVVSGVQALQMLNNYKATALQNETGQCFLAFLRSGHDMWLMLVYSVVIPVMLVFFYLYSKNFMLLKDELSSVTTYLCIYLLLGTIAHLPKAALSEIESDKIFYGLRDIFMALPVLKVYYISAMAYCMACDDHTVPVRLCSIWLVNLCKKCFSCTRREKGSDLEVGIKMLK

[4] = system: herpesviruses serine proteases; settings: cited from earlier work
HHV-6B U51 [5] = molecular target: T1, HHV-6B U51; type: biochemical; settings: HHV-6B U51 HEK293 membranes; for % Control [35S]GTPγS binding ± SEM, U51 (+Tet): induced with 1 μg/ml tetracycline 24 h; for % Control [35S]GTPγS binding ± SEM, U51 (Unind): no tetracycline (uninduced); remark: listed apart in the source
[6] = system: human μ, δ, or κ opioid receptor; test: [35S]GTPγS binding to control CHO cell membranes with opioid receptors; type: biochemical; settings: CHO cells stably transfected with human μ, Emax obtained at opioid concentration less than 1 μM

In the case of `CCC12CCN(CC3(O)CC3)C(Cc3ccc(O)cc31)C2(C)C` (centres unmarked) [[^3H]bremazocine], the “specific binding of radiolabelled opioid to HHV-6B U51 membranes” value (“specific binding of radiolabelled opioid” below) (HHV-6B U51 [1]) is reported as “did not specifically bind”.

For “US28: human cytomegalovirus 7-transmembrane protein, expressed from plasmid as positive control”, the “cell fusion activity compared to cells transfected with VSV-G alone” value (HEK293 cells) was ~3 fold.

For RANTES: β-chemokine (CC-chemokine), the “action at U51” value (U51) is given as “agonists”, the “binding affinity to HHV-6 U51” value (HHV-6 U51) is given as “nanomolar affinity” and the “% Control [35S]GTPγS binding ± SEM, Native” value [2] is given as 101 ± 2%. The “% Control [35S]GTPγS binding ± SEM, U51 (+Tet)” value (HHV-6B U51 [3]) was 104 ± 2% and the “% Control [35S]GTPγS binding ± SEM, U51 (Unind)” value (HHV-6B U51 [3]) was 111 ± 1%.

For “kappa opioid receptor: rat kappa opioid receptor expression plasmid, negative control”, the “cell fusion activity compared to cells transfected with VSV-G alone” value (HEK293 cells) was “no effect”.

For `O=S(=O)(F)Cc1ccccc1` [PMSF, phenylmethylsulphonyi fluoride], the “inhibition of herpesvirus serine proteases” value [4] is listed as “weakly inhibited”.

For CCL2: chemokine, the “action at U51” value (U51) is given as “agonists”.

For `CN1CC[C@]23c4c5ccc(O)c4O[C@H]2[C@@H](O)C=C[C@H]3[C@H]1C5` [Morphine, morphine], the “% Control [35S]GTPγS binding ± SEM, Native” value [2] was 99 ± 9%, the “% Control [35S]GTPγS binding ± SEM, U51 (+Tet)” value (HHV-6B U51 [5]) was 91 ± 9% and the “% Control [35S]GTPγS binding ± SEM, U51 (Unind)” value (HHV-6B U51 [5]) was 99 ± 0.9%.

For Interleukin-8: chemokine ligand, the “% Control [35S]GTPγS binding ± SEM, Native” value [2] was 101 ± 5%, the “% Control [35S]GTPγS binding ± SEM, U51 (+Tet)” value (HHV-6B U51 [3]) was 96 ± 3% and the “% Control [35S]GTPγS binding ± SEM, U51 (Unind)” value (HHV-6B U51 [3]) was 96 ± 2%.

In the case of `CC(C)[C@H](NC(=O)[C@H](CCC(=O)O)NC(=O)[C@H](Cc1ccccc1)NC(=O)[C@@H](C)NC(=O)[C@@H](N)Cc1ccc(O)cc1)C(=O)N[C@H](C(=O)NCC(N)=O)C(C)C` [Deltorphin II], the “% Control [35S]GTPγS binding ± SEM, U51 (+Tet)” value (HHV-6B U51 [5]) is reported as 91 ± 6% and the “% Control [35S]GTPγS binding ± SEM, U51 (Unind)” value (HHV-6B U51 [5]) is reported as 98 ± 2%.

In the case of `C[C@@H](NC(=O)[C@@H](N)Cc1ccc(O)cc1)C(=O)NCC(=O)N(C)[C@@H](Cc1ccccc1)C(=O)NCCO` [DAMGO], the “% Control [35S]GTPγS binding ± SEM, Native” value [2] is reported as 106 ± 4%, the “Control Cell Emax, % Control [35S]GTPγS binding ± SEM” value [6] is reported as 216 ± 4.4% and the “% Control [35S]GTPγS binding ± SEM, U51 (+Tet)” value (HHV-6B U51 [5]) is reported as 86 ± 6%. The “% Control [35S]GTPγS binding ± SEM, U51 (Unind)” value (HHV-6B U51 [5]) was 96 ± 3%.

In the case of `C[C@@H](NC(=O)[C@@H](N)Cc1ccc(O)cc1)C(=O)NCC(=O)N(C)[C@@H](Cc1ccccc1)C(=O)NCCO` [[^3H]DAMGO], the “specific binding of radiolabelled opioid” value (HHV-6B U51 [1]) is reported as “did not specifically bind”.

In the case of MCP-3: chemokine ligand, the “% Control [35S]GTPγS binding ± SEM, Native” value [2] is reported as 97 ± 3%, the “% Control [35S]GTPγS binding ± SEM, U51 (+Tet)” value (HHV-6B U51 [3]) is reported as 103 ± 2% and the “% Control [35S]GTPγS binding ± SEM, U51 (Unind)” value (HHV-6B U51 [3]) is reported as 109 ± 9%.

With `Oc1ccc2c3c1O[C@H]1c4[nH]c5ccccc5c4C[C@@]4(O)[C@@H](C2)N(CC2CC2)CC[C@]314` [Naltrindole, naltrindole] the “% Control [35S]GTPγS binding ± SEM, Native” value [2] was 96 ± 4%, the “% Control [35S]GTPγS binding ± SEM, U51 (+Tet)” value (HHV-6B U51 [5]) was 97 ± 4% and the “% Control [35S]GTPγS binding ± SEM, U51 (Unind)” value (HHV-6B U51 [5]) was 98 ± 4%.

For DPDPE, the “% Control [35S]GTPγS binding ± SEM, Native” value [2] was 104 ± 1%, the “Control Cell Emax, % Control [35S]GTPγS binding ± SEM” value [6] was 254 ± 16% and the “% Control [35S]GTPγS binding ± SEM, U51 (+Tet)” value (HHV-6B U51 [5]) was 99 ± 2%. For the same molecule, the “% Control [35S]GTPγS binding ± SEM, U51 (Unind)” value (HHV-6B U51 [5]) was 96 ± 1%.

With `Oc1ccc2c3c1O[C@H]1c4[nH]c5ccccc5c4C[C@@]4(O)[C@@H](C2)N(CC2CC2)CC[C@]314` [[^3H]naltrindole] the “specific binding of radiolabelled opioid” value (HHV-6B U51 [1]) was “did not specifically bind”.

For CCL11: chemokine, the “action at U51” value (U51) is listed as “agonists”.

B1: Lymphotactin: chemokine ligand (protein)
chain: VGSEVSDKRTCVSLTTQRLPVSRIKTYTITEGSLRAVIFITKRGLKVCADPQATWVRDVVRSMDRKSNTRNNMIQTKPTGTQQSTNTAVTLTG
For B1, the “% Control [35S]GTPγS binding ± SEM, Native” value [2] was 97 ± 2%, the “% Control [35S]GTPγS binding ± SEM, U51 (+Tet)” value (HHV-6B U51 [3]) was 104 ± 7% and the “% Control [35S]GTPγS binding ± SEM, U51 (Unind)” value (HHV-6B U51 [3]) was 99 ± 3%.
